Measured values from ChEMBL document CHEMBL1201862, “PubChem BioAssay data set” (2004).
Activity calls are given as the source filed them.

Tests used:
T-cell = test: loss of vesicle association with mouse CD8+ T cells – mouse 2C CD8+ T cells, flow cytometry, dose response (AID 485284); format: functional
[1] = biological target: Photoreceptor-specific nuclear receptor (Homo sapiens, UniProt Q9Y5X4); format: functional, cell-based;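 also: CHO-S cells with Gal4-NCOR and VP16-NR2E3 two-hybrid luciferase reporter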
Chain of Photoreceptor-specific nuclear receptor (Q9Y5X4 whole entry, the tested form may be a part): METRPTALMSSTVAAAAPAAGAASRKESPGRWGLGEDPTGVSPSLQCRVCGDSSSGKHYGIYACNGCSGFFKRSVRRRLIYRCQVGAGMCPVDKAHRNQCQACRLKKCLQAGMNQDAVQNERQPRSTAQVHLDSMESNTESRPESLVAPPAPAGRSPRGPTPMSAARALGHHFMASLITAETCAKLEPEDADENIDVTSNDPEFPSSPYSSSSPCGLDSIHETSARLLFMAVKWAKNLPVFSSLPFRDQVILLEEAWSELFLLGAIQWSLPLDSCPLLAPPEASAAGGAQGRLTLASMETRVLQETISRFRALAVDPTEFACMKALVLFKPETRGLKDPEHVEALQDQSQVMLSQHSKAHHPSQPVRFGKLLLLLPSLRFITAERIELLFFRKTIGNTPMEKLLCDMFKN

Protein Wnt-3a = Protein Wnt-3a (Mus musculus, UniProt P27467); test: antagonism of Wnt3a pathway luciferase reporter – Wnt-LIGHT cells, luminescence, selectivity assay for Gli-SUFU antagonist project, dose response (AID 651570); format: functional; conditions: read-out: IC50_Mean;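 also: Wnt-LIGHT reporter cells stimulated with conditioned medium from Wnt3a-producing cells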
Chain of Protein Wnt-3a (P27467 whole entry): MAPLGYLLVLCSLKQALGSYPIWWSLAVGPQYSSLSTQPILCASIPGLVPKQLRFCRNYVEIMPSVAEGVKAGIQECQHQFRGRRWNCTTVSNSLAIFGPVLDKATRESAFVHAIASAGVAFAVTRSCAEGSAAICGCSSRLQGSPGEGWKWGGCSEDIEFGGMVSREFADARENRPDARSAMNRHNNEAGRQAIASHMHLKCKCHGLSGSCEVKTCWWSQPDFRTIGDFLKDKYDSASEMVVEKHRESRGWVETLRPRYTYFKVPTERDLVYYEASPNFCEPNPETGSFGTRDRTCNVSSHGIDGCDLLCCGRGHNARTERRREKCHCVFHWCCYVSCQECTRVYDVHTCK

cells [2] = format: functional, cell-based
cells [3] = format: functional, cell-based; remark: listed apart in the source
[4] = biological target: Hepatocyte nuclear factor 4-alpha (Homo sapiens, UniProt P41235); format: functional, cell-based;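 also: biochemical luminescence-based dose-response counterscreen measuring inhibition of HNF4 dimerization, run alongside a screen for blockers of ABHD5–perilipin-5 interaction; split luciferase complementation of HNF4 fusion proteins in cell lysate measuring dimerization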
Chain of Hepatocyte nuclear factor 4-alpha (P41235 whole entry, the tested form may be a part): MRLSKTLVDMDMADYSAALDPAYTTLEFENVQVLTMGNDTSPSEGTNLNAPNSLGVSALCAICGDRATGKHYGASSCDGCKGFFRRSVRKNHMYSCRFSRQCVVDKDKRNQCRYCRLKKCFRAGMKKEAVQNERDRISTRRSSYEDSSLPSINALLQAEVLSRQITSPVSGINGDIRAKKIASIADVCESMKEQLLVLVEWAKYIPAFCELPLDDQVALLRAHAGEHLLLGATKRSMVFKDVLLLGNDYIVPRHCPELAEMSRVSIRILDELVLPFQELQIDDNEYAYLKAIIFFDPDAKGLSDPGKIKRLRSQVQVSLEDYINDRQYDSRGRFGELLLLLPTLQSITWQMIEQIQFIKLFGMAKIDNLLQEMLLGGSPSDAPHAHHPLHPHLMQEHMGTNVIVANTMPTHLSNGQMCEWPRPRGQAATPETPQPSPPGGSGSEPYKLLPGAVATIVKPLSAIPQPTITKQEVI

[5] = biological target: T1, Short transient receptor potential channel 4 (Mus musculus, UniProt Q9QUQ5); test: calcium entry via TRPC4 opening agents – cell-based, HEK293 TRPC4/mu-opioid, Fluo-4 calcium, dose response (AID 434937); format: functional
T1 sequence (Q9QUQ5 whole entry): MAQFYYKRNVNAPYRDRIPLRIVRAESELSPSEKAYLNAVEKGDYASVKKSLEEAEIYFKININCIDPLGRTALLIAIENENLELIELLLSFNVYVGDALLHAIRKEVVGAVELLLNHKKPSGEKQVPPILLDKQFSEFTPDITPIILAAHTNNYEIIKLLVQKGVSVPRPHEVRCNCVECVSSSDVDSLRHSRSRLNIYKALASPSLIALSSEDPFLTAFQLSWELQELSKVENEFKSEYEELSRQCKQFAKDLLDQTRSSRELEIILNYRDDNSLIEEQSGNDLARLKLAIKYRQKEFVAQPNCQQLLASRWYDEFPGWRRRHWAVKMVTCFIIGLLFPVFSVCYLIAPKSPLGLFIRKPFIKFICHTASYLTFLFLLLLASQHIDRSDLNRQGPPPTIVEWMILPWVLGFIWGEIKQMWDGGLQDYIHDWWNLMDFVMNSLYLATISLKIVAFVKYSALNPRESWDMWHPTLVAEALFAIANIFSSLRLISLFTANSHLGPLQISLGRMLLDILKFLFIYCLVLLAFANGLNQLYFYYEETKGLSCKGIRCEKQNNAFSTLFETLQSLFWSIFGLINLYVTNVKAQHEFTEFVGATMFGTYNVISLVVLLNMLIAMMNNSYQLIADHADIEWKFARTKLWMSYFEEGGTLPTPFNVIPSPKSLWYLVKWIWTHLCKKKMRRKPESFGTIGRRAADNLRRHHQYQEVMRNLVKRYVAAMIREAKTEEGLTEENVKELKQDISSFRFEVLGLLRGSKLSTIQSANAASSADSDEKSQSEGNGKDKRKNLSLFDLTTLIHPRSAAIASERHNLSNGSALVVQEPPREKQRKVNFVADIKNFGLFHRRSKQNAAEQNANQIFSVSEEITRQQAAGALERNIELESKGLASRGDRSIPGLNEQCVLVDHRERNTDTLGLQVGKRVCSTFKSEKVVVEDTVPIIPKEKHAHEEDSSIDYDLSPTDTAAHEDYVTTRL

INS1 = test: INS-1E survival protection against cytokine death – cell-based, luminescence, retest, dose response (AID 449756); format: functional; conditions: Rattus norvegicus, INS1;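 also: cell death triggered by IL-1 beta plus TNF-alpha plus IFN-gamma mixture; protective hits raise ATP signal compared with cytokine alone wells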
[6] = reduction of Shn3 3'UTR-driven luciferase in osteoblasts – cell-based, Clone20 osteoblasts, firefly luciferase, cherry-picked, dose response (AID 624132); format: functional;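 also: firefly luciferase luminescence from reporter carrying the Shn3 3'UTR in osteoblasts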
[7] = loss of viability in HepG2 cells – cell-based, CellTiter-Glo, cherry-picked, cytotoxicity control for Shn3 inhibitor project, dose response (AID 624134); format: functional
[8] = non-specific 3'UTR reporter inhibition in Clone20-Shn3RL – cell-based, Renilla luciferase, cherry-picked, counter-screen for Shn3 inhibitor project, dose response (AID 624133); format: functional
[9] = biological target: T2, Replicative DNA helicase DnaB (Mycobacterium tuberculosis, UniProt P9WMR3); test: DnaB intein splicing inhibitors, dose response, biochemical, cell-free fluorescence (AID 449749); format: functional
T2 sequence (P9WMR3 whole entry): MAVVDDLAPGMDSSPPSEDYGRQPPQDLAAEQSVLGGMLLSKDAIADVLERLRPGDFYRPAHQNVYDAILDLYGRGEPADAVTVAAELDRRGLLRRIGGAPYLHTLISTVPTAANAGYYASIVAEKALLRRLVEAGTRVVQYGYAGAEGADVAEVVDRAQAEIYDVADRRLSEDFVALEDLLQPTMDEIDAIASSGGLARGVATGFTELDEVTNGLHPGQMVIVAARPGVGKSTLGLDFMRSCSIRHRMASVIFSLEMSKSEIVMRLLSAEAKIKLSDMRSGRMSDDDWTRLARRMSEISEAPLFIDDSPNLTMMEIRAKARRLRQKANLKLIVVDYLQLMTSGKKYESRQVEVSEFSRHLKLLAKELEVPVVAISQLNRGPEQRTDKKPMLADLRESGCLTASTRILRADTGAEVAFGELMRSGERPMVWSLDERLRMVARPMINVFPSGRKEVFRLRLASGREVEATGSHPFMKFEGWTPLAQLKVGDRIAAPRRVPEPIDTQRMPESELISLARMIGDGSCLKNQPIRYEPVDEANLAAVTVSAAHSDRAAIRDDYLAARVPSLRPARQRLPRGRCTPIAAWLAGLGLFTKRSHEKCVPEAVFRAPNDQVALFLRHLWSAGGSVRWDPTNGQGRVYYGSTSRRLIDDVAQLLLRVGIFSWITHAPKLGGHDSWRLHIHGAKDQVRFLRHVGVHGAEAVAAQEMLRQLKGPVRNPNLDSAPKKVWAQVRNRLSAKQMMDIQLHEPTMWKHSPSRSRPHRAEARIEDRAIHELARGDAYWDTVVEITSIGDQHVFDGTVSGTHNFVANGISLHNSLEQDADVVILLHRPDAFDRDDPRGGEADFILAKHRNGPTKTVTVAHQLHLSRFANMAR

Protein RecA = biological target: T3, Protein RecA (Mycobacterium tuberculosis, UniProt P9WHJ3); test: Fluorescence Cell-Free Homogeneous Dose Retest to Identify Inhibitors of RecA-Intein Splicing Activity. [Related pubchem assays (depositor defined):AID2097, AID2223, AID489010, AID492950]; format: functional
T3 sequence (P9WHJ3 whole entry): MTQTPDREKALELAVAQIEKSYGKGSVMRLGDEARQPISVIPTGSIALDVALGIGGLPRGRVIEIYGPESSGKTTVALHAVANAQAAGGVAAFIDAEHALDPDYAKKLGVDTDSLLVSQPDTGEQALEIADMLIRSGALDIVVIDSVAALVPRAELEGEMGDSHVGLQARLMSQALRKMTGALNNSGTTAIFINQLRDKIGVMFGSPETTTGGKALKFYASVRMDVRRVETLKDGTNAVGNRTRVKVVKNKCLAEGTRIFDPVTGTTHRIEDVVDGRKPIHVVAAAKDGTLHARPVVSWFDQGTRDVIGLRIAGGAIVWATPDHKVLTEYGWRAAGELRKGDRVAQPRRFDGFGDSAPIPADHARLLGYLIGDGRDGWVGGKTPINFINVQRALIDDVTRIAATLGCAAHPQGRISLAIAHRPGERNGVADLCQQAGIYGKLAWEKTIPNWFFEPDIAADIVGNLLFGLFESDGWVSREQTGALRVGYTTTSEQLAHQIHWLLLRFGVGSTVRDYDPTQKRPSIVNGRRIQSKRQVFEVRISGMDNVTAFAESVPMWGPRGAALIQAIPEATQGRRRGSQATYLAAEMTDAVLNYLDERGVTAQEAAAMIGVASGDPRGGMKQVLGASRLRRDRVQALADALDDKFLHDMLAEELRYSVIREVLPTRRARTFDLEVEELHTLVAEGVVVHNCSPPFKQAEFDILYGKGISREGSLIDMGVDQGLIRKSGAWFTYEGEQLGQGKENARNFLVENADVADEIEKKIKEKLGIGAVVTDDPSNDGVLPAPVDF

[10] = Fluorescence-based cell-based high throughput dose response assay for inhibitors of the interaction of nucleotide-binding oligomerization domain containing 2 (NOD2) and the receptor-interacting serine-threonine kinase 2 (RIPK2).; format: functional; conditions: Homo sapiens
[11] = biological target: T4, Heat shock factor protein 1 (Mus musculus, UniProt P38532); test: enhancement of HSF1-driven luciferase signal – cell-based, NIH3T3, luminescence, dose retest, confirmation (AID 435004); format: functional;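 also: stress induced by proteasome inhibitor MG132 added 30 min after compound; luciferase reporter driven by HSF1 response element in NIH3T3 cells; actives raise luminescence as potentiators of the MG132 stress response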
T4 sequence (P38532 whole entry): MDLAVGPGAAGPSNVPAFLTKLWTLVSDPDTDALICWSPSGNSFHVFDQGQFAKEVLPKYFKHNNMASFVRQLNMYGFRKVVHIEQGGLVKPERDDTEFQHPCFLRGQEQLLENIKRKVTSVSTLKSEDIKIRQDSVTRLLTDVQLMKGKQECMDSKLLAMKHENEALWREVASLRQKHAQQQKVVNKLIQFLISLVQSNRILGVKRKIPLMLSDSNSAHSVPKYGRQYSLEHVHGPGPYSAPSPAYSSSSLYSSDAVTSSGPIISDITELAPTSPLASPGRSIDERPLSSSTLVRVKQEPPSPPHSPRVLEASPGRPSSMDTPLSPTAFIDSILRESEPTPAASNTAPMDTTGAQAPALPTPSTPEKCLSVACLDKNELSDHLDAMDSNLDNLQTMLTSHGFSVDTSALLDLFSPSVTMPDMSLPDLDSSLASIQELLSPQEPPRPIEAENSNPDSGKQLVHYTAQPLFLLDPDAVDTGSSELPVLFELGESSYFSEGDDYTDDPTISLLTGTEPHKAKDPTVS

[12] = biological target: T5, Corticotropin-releasing factor receptor 2/Corticotropin-releasing factor-binding protein (Homo sapiens, UniProt P24387+Q13324); test: Dose Response confirmation of uHTS hits for small molecule antagonists of the CRF-binding protein and CRF-R2 receptor complex.; format: functional; conditions: read-out: IC50_Mean
T5 sequence (Q13324 whole entry): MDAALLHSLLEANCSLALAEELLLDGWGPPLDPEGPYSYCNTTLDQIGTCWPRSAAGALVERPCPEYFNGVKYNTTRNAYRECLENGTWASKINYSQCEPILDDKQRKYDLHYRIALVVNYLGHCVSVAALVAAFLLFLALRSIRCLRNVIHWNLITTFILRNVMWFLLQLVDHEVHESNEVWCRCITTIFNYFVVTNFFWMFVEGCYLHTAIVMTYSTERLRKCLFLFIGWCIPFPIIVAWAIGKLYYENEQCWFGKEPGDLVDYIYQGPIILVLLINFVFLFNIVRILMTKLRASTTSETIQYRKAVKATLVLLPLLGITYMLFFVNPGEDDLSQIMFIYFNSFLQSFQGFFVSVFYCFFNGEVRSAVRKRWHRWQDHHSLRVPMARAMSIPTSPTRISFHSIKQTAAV
T5 sequence (P24387 whole entry): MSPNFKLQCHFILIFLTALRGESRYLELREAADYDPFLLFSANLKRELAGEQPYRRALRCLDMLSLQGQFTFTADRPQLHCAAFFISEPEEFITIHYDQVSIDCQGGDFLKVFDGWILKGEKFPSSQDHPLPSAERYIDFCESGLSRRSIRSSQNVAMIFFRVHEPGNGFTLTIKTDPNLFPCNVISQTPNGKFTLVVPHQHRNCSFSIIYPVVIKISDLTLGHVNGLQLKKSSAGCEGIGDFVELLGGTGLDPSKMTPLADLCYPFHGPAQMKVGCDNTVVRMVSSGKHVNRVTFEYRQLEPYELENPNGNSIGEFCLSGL

[13] = biological target: T5, Corticotropin-releasing factor receptor 2/Corticotropin-releasing factor-binding protein; test: activators of CRF receptor 2 with binding protein – uHTS hits, confirmation (AID 602473); format: functional; conditions: read-out: EC50_Mean
[14] = blockers of CRF-binding protein–CRF-R2 complex – cell-based, uHTS hits, 384-well, dose response (AID 651639); format: functional, Homo sapiens; conditions: read-out: IC50_Mean
Cytochrome P450 2D6 = Cytochrome P450 2D6 (Homo sapiens, UniProt P10635);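 also: CYP2D6 member of a cytochrome P450 panel assay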
Chain of Cytochrome P450 2D6 (P10635 whole entry): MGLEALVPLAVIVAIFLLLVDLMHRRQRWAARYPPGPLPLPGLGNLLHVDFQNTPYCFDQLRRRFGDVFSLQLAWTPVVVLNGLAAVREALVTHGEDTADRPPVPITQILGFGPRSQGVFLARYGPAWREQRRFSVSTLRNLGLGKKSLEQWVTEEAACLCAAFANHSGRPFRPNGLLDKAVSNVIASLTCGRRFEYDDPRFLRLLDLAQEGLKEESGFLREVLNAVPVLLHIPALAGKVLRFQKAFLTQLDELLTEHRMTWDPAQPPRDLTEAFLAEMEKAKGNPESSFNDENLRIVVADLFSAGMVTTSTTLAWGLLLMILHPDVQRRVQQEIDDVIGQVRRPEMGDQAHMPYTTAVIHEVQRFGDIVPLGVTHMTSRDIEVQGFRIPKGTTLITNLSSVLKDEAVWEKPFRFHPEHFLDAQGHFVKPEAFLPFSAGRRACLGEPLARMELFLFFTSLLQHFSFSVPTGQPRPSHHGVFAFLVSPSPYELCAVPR

Cc1ccc(OCCOC(=O)c2cc(S(=O)(=O)N3CCCCC3)ccc2N2CCOCC2)cc1
EC50 (T-cell): 11.8 µM (active)
IC50 [1]: 12.6 µM (inactive)
IC50 (Protein Wnt-3a): 4.83 µM (active)

COc1ccccc1/C=C/C(=O)c1ccccc1
EC50 (cells [2]): > 350 µM (not active)
EC50 (cells [3]): 6.12 µM (active)
IC50 [4]: 7.12 µM (active)

Cc1sc2ncnc(NCC(C)(C)N3CCOCC3)c2c1C
EC50 [5]: 0.841 µM (active)
AC50 (INS1): 2.96 µM (active)
AC50 [6]: 1.36 µM (active)
AC50 [7]: 4.09 µM (active)
AC50 [8]: 3 µM (active)
IC50 (Protein Wnt-3a): 0.942 µM (active)

O=C(NCc1cccnc1)/C(=C\c1ccc(-c2ccc(Br)cc2)o1)S(=O)(=O)c1ccccc1
AC50 [9]: > 380 µM (inconclusive)
EC50 (Protein RecA): 20.2 µM (active)
AC50 (INS1): 2.9 µM (active)
AC50 [6]: 6.33 µM (active)
AC50 [7]: 11.3 µM (active)
AC50 [8]: 13 µM (active)
IC50 [10]: 5.51 µM (active)

COc1cccc(CSc2nnc(C(F)(F)F)n2Cc2ccc(F)cc2)c1
EC50 [11]: > 260 µM (inactive)
IC50 [12]: 7.2 µM (active)
EC50 [13]: > 53 µM (inactive)
IC50 [14]: > 20 µM (inactive)
AC50 (Cytochrome P450 2D6): 10 µM (inconclusive)

O=C(NC1CCCCC1)C(c1cc2ccccc2o1)n1c(=O)c(-c2ccco2)nc2ccccc21 (stereo not drawn)
IC50 [4]: 2.19 µM (active)

CCOC(=O)c1c(-c2ccccc2)oc2ccc(OC(C)C(=O)O)cc12 (stereo not drawn)
IC50 [12]: < 0.368 µM (active)
EC50 [13]: > 53 µM (inactive)
IC50 [14]: 0.34 µM (active)
